Measured values: BigSolDB 2.1

CC(C(=O)O)c1ccc(CC2CCCC2=O)cc1 (stereo not given)
solubility (mole fraction)
Details	283.15 K	288.15 K	293.15 K	298.15 K	303.15 K	308.15 K	313.15 K	318.15 K	323.15 K	328.15 K
in 1,4-dioxane	0.154	0.171	0.19	0.214	0.246	0.272	0.304	0.339	0.378	0.408
in acetonitrile	0.0234	0.0296	0.0364	0.0419	0.059	0.0847	0.113	0.166	0.233	0.318
in ethanol	0.0573	0.0676	0.0717	0.0943	0.123	0.154	0.208	0.252	0.316	0.389
in ethyl acetate	0.0521	0.0621	0.0752	0.0848	0.0996	0.13	0.162	0.19	0.244	0.301
in ethyl orthosilicate	0.0247	0.0293	0.0325	0.0365	0.043	0.0491	0.0565	0.0694	0.0796	0.0991
in isobutyl acetate	0.0261	0.0314	0.0357	0.0451	0.0583	0.0688	0.0913	0.116	0.144	0.191
in isopentyl acetate	0.0253	0.0306	0.035	0.0448	0.0561	0.0674	0.0829	0.109	0.134	0.165
in isopropanol	0.0589	0.0747	0.0874	0.0966	0.128	0.145	0.189	0.224	0.277	0.339
in isopropyl acetate	0.0298	0.0373	0.0443	0.056	0.0694	0.0819	0.11	0.134	0.176	0.229
in methanol	0.0694	0.0783	0.0897	0.118	0.163	0.216	0.283	0.364	0.496	0.628
in methyl acetate	0.0568	0.0659	0.0797	0.0895	0.11	0.136	0.17	0.205	0.255	0.325
in n-butyl acetate	0.0284	0.0338	0.0418	0.0527	0.0621	0.0764	0.096	0.122	0.156	0.205
in n-propanol	0.0526	0.0643	0.0792	0.0905	0.116	0.139	0.184	0.223	0.269	0.338
in n-propyl acetate	0.0384	0.0483	0.0529	0.0631	0.0814	0.0978	0.127	0.155	0.199	0.261
